Source: patent publication US20030215896A1, “Gamma secretase substrates and in vitro assays” (priority 2003, published 2003)

Key:
[1] = molecular target: solubilized γ-secretase (supernatant solution from 1% CHAPSO-extracted HeLa S3 cell membranes); experiment: cell-based or functional assay
γ-secretase = γ-secretase (Cricetulus griseus, UniProt G3HNF2); experiment: Radiolabeling pulse-chase of CHO/APP695 cells, 4G8 immunoprecipitation, SDS-PAGE; type: cell-based, Chinese hamster; settings: 1 μM, data not shown
Protocol: The effect of a γ-secretase inhibitor on γ-secretase activity was measured using Chinese hamster ovary fibroblasts that stably express APP695 (CHO/APP695, provided by Dr. S. Sisodia (University of Chicago, Chicago, Ill.)). CHO/APP695 were grown in 90% DMEM, 10% fetal bovine serum, 2 mM glutamine, 100 μg/ml each of penicillin and streptomycin, and 0.2 mg/ml G418. CHO/APP695 cells were seeded in 96-well dishes at 2×10^4 cells/well. Aβ-peptide formation was detected by either ECL or using radiolabeling.
For the radiolabeling experiments, CHO/APP695 cells (in 100 mm dishes) were grown to 70% confluency in complete media. Afterwards, these cells were cultured±1 μM L-685,458 for 24 hours, switched to Met-free medium (±1 μM L-685,458) for 20 minutes, pulsed with 1 mCi/ml of S^35-Met (Amersham Life Sciences, Inc, Arlington Heights, Ill.) in Met-free medium (±1 μM L-685,458) for 2 hours, and subsequently chased in complete medium (±1 μM L-685,458) for 45 minutes. The cells were washed with Hanks balanced salt solution and lysed with 1 ml of RIPA. The insoluble residue was removed by centrifugation. The 4G8 antibody (final concentration, 2 μg/ml) was added to the supernatant fractions. The samples were gently rotated overnight at 4° C. Protein G-agarose beads (Pharmacia Biotech, Piscataway, N.J.) were added the next day, the samples were rotated for an additional 2 hours and then centrifuged. […]

[2] = test system: γ-secretase (HeLa cell membranes); experiment: In vitro γ-secretase assay with HeLa cell membranes and SEQ. ID. NO. 9 substrate in presence of detergent, ECL; type: biochemical, human; settings: detergent 0.75%
[3] = test system: γ-secretase (HeLa cell membranes); experiment: as above; type: biochemical, human; settings: for Effect of detergent on in vitro γ-secretase cleavage of substrate: SEQ. ID. NO. 9 substrate
Protocol: HeLa S3 cells from American Type Culture Collection (Rockville, Md.) were grown in bioreactors (Analytical Biological Services; Wilmington, Del.) in 90% DMEM, 10% fetal bovine serum, 2 mM glutamine and 100 μg/ml each of penicillin and streptomycin. Frozen HeLa S3 cells were resuspended in buffer A (50 mM MES, pH 6.0, 5 mM MgCl2, 5 mM CaCl2, 150 mM KCl) containing “complete” protease inhibitor cocktail (Boehringer Mannheim, Indianapolis, Ind.). The cells were broken by single-pass through a French Press (Spectronic Instruments, Rochester, N.Y.). Cell debris and nuclei were removed by centrifugation at 800×g for 10 minutes. The supernatant solutions were centrifuged at 100,000×g for 60 minutes. The ensuing pellets were resuspended in buffer A and the centrifugation was repeated. The final membrane pellets were resuspended in buffer A to yield a protein concentration of approximately 12 mg/ml. All procedures were performed at 4° C. The membranes were stored at −70° C.
In vitro assays measuring γ-secretase activity were performed using cell membranes or as “solubilized γ-secretase”. In one reaction, SEQ. ID. NO. 9 substrate (1.7 μM) was incubated with cell membranes (0.5 mg/ml) in presence of detergent in buffer B (50 mM PIPES, pH 7.0, 5 mM MgCl2, 5 mM CaCl2, 150 mM KCl) at 37° C. In another reaction, supernatant solution from CHAPSO-extracted HeLa cell membranes (“solubilized γ-secretase”) was incubated with SEQ. ID. NO. 9 substrate at 37° C. in the presence of detergent in buffer B. Generally, 0.25% CHAPSO was provided as the detergent. The reactions were stopped by adding RIPA (150 mM NaCl, 1.0% NP-40, 0.5% DOC, 0.1% SDS, 50 mM Tris HCl, pH 8.0).
The samples were centrifuged and the supernatant solutions were assayed for the Aβ peptides by ECL. The Aβ40- and Aβ42-related products from γ-secretase-mediated processing of SEQ. ID. NO.
SEQ. ID. NO. 9 substrate (1.7 μM) was incubated with cell membranes (0.5 mg/ml) in presence of CHAPSO, CHAPS or Triton X-100 (0, 0.125, 0.25, 0.5, or 1%) in buffer B at 37° C.

[4] = test system: γ-secretase (HeLa cell membranes); experiment: Extraction of γ-secretase activity from HeLa cell membranes with CHAPSO detergent; type: biochemical, human
Protocol: HeLa S3 cells from American Type Culture Collection (Rockville, Md.) were grown in bioreactors (Analytical Biological Services; Wilmington, Del.) in 90% DMEM, 10% fetal bovine serum, 2 mM glutamine and 100 μg/ml each of penicillin and streptomycin. […] The cells were broken by single-pass through a French Press (Spectronic Instruments, Rochester, N.Y.). Cell debris and nuclei were removed by centrifugation at 800×g for 10 minutes. The supernatant solutions were centrifuged at 100,000×g for 60 minutes. The ensuing pellets were resuspended in buffer A and the centrifugation was repeated. The final membrane pellets were resuspended in buffer A to yield a protein concentration of approximately 12 mg/ml. All procedures were performed at 4° C. The membranes were stored at −70° C. […] The supernatant solutions (solubilized fractions) and the pellets (membrane fractions) were then assayed for γ-secretase activity with the SEQ. ID. NO. 9 substrate. […] The ensuing supernatant solution provides “solubilized γ-secretase”. […] In vitro assays measuring γ-secretase activity were performed using cell membranes or as “solubilized γ-secretase”. In one reaction, SEQ. ID. […] ID. NO. 9 substrate at 37° C. in the presence of detergent in buffer B.

[5] = molecular target: T1, solubilized γ-secretase (CHAPSO-extracted HeLa cell membranes) (Homo sapiens, UniProt P49768); experiment: In vitro γ-secretase assay with "solubilized γ-secretase" and SEQ. ID. NO. 9 substrate, ECL; type: biochemical; settings: assaying for Aβ40 cleavage, FIG. 2A; read-out: Apparent Km value of solubilized γ-secretase for substrate
T1 construct: ID; NO; 9 su
Protocol: (§1) The ensuing supernatant solution provides “solubilized γ-secretase”.
(§2) In vitro assays measuring γ-secretase activity were performed using cell membranes or as “solubilized γ-secretase”. In one reaction, SEQ. ID. NO. […] ID. NO.

[6] = test system: solubilized γ-secretase (CHAPSO-extracted HeLa cell membranes); experiment: as above; type: biochemical, human; settings: solubilized γ-secretase
Protocol: as §1, §2

Compound	M-Aβ 40 production [2] [ECL signal × 10^−6]	Effect of detergent on in vitro γ-secretase cleavage of substrate ([3]; HeLa cell membranes)	M-Aβ 40 production ([3]; detergent 0.125%) [ECL signal × 10^−6]	M-Aβ 40 production ([3]; detergent 0.25%) [ECL signal × 10^−6]	M-Aβ 40 production ([3]; detergent 0.5%) [ECL signal × 10^−6]	M-Aβ 40 production ([3]; detergent 1%) [ECL signal × 10^−6]	other results
pepstatin (peptide)							IC50 for inhibiting the generation of the Aβ40 terminus (in vitro γ-secretase assay, ECL) [1]: 4 µM; IC50 for inhibiting the generation of the Aβ42 terminus (in vitro γ-secretase assay, ECL) [1]: 5.9 µM
CC(C)C[C@H](NC(=O)[C@H](Cc1ccccc1)C[C@@H](O)[C@H](Cc1ccccc1)NC(=O)OC(C)(C)C)C(=O)N[C@@H](Cc1ccccc1)C(N)=O [L-685,458]							Intracellular accumulation of APP fragments (α-CTF, β-CTF) (γ-secretase): intracellular accumulation of APP immunoreactive fragments that co-migrate with α-CTF and β-CTF
Triton X-100	0.02	fails to potentiate in vitro γ-secretase activity	0.02	0.02	0.02	0.02	
C[C@H](CCC(=O)NCCC[N+](C)(C)CC(O)CS(=O)(=O)[O-])[C@H]1CC[C@H]2[C@@H]3[C@H](O)C[C@@H]4C[C@H](O)CC[C@]4(C)[C@H]3C[C@H](O)[C@]12C (some centres unmarked) [CHAPSO]	0.07	promotes cleavage at the γ-secretase scissile bond	2.2	8.74	1.22	0.03	% of total γ-secretase activity in Membranes fraction ([4]; CHAPSO 0.25%): 97%; % of total γ-secretase activity in Solubilized fraction ([4]; CHAPSO 0.25%): 3%; % of total γ-secretase activity in Membranes fraction ([4]; CHAPSO 0.50%): 65%; % of total γ-secretase activity in Solubilized fraction ([4]; CHAPSO 0.50%): 35%; % of total γ-secretase activity in Membranes fraction ([4]; CHAPSO 1.00%): 51%; % of total γ-secretase activity in Membranes fraction ([4]; CHAPSO 2.0%): 50%; % of total γ-secretase activity in Solubilized fraction ([4]; CHAPSO 2.0%): 50%; Detergent concentration giving optimal γ-secretase activity ([3]; HeLa cell membranes): 0.25%
C[C@H](CCC(=O)NCCC[N+](C)(C)CCCS(=O)(=O)[O-])[C@H]1CC[C@H]2[C@@H]3[C@H](O)C[C@@H]4C[C@H](O)CC[C@]4(C)[C@H]3C[C@H](O)[C@]12C [CHAPS]	0.04	promotes cleavage at the γ-secretase scissile bond	0.03	3.21	0.27	0.03	
SEQ. ID. NO. 9 substrate: γ-secretase substrate: fusion protein of N-terminal Met, APP597-695 (β-CTF domain) and C-terminal Flag tag DYKDDDDK							Aβ42/Aβ40 cleavage ratio ([3]; intact membranes): approximately 0.1; Km [5]: ~1 µM; Aβ42/Aβ40 cleavage ratio [6]: approximately 0.1
